Laboratory results reported in patent US4593036A, “(-)-Trans-4-(4-fluorophenyl)-3-[(4-methoxyphenoxy)meth yl]-1-methylpiperidine useful as 5-HT potentiator” (priority 1984, dated 1986).

How the values were obtained:
5-HT uptake = assay: Test 173: potentiation of 5-HTP (5-hydroxytryptophane) induced hypermotility in mice (inhibition of 5HT uptake, or 5HT potentiation, test); type: in vivo, mice (female, NMRI strain); conditions: for FG 8033 is better by: 5-HT Potentiation % / FG 8033 is better by: 5-HT Potentiation Factor: FG 8033 compared with the listed compound, mice s.c.; for ED50: Mus musculus, sc, read-out: Test 173 (dose increasing the activity to double the activity found with controls receiving 5-HTP alone; ED50), s.c., 5-HTP 150 mg/kg i.p., motility 45-75 min after 5-HTP, water-soluble salt
Description: I. POTENTIATION OF 5-HTP (5-HYDROXYTRYPTOPHANE) INDUCED HYPERMOTILITY IN MICE
This behavior is characterized by continuous jerky locomotion, head movements from side to side, abduction of the hind limbs, tremor, and lordosis.
Measurement of the motility after administration of test drugs to 5-HTP-pretreated mice is therefore used as a test for 5-HT-potentiation, which most probably proceeds through an inhibition of 5-HT uptake.
Female mice of the NMRI strain weighing 20-22 g are used. The controls receive 5-HTP 150 mg/kg (15 ml/kg) i.p. (i.p.=intraperitoneally) and thirty (30) minutes later physiological saline (20 ml/kg) s.c. (s.c.=subcutaneously). The motility is measured by an Animex™ motimeter 45-75 minutes after 5-HTP administration. The test animals received test substance s.c. (20 ml/kg) instead of physiological saline. Five groups of two (2) mice are used for control and per dose of each test drug. the test substance is dosed according to the dose scale 1, 1.6, 2.5, 4, 6.3, and 10 mg/kg etc.
The activity of the test animals is compared to the activity of controls. The best straight line is fitted through the points in a coordinate system (abscissa log dose, ordinate log activity). […] The activity of controls is investigated in thirty (30) groups of two (2) mice.

mice = assay: in vivo; conditions: for FG 8033 is better by: T.I. % / FG 8033 is better by: T.I. Factor: FG 8033 compared with the listed compound, mice s.c.
Protocol: (§1) (J. Buus Lassen, European Journal of Pharmacology 47, 351-358 (1978)). See also Squires in Acta Pharmacol. et Toxicol, 1972, 31 Suppl. 1,35 for a description of a further procedure for measurement of the same 5-HT uptake-inhibitory phenomenon.
(§2) II. ACUTE TOXICITY IN MICE
(§3) A variation of the procedure of J. Buus Lassen, et al. in European Journal of Pharmacology 32, 108-115 (1975) is employed. The test drug is administered s.c. in increasing doses to mice, four (4) animals at each dose level.
(§4) Results are expressed as LD50 = . . . mg/kg s.c.

in vivo = conditions: mouse, in vivo, sc
Protocol: as §1, §2, §3, §4

[1] = versus (+) trans isomer FG 8032
[2] = versus (+), trans des-p-fluoro compound FG 4963
[3] = versus (-), trans des-p-fluoro compound FG 4962

Row | Structure (SMILES) | FG 8033 is better by: 5-HT Potentiation % (5-HT uptake) [%] | FG 8033 is better by: 5-HT Potentiation Factor (5-HT uptake) | ED50 (5-HT uptake; mice) [mg/kg] | FG 8033 is better by: T.I. % (mice) [%] | FG 8033 is better by: T.I. Factor (mice) | also measured
1 | COc1ccc(OC[C@@H]2CN(C)CC[C@H]2c2ccc(F)cc2)cc1 (relative stereo) [FG 98-I] | 260 | 2.6 | 1.3 | 174 | 1.74 | –
2 | COc1ccc(OC[C@@H]2CN(C)CC[C@H]2c2ccccc2)cc1 (relative stereo) [FG 4932, reference compound] | – | – | 7.7 | – | – | –
3 | COc1ccc(OC[C@@H]2CN(C)CC[C@H]2c2ccccc2)cc1 (single isomer, unassigned) [FG 4962, reference compound] | – | – | 3.8 | – | – | –
4 | COc1ccc(OC[C@H]2CN(C)CC[C@@H]2c2ccccc2)cc1 (single isomer, unassigned) [FG 4963, reference compound] | – | – | 2.8 | – | – | –
5 | COc1ccc(OC[C@H]2CNCC[C@@H]2c2ccccc2)cc1 (single isomer, unassigned) [FG 4996, reference compound] | 1800 | 18 | 9 | 5714 | 57.14 | –
6 | COc1ccc(OC[C@@H]2CNCC[C@H]2c2ccccc2)cc1 (single isomer, unassigned) [FG 7006, reference compound] | 4000 | 40 | 20 | 4444 | 44.44 | Test 001 acute toxicity LD50 (mice; mice, s.c., lethality at 24 hours, water-soluble salt): 350 mg/kg; selectivity ratio (in vivo): 18
7 | CN1CC[C@@H](c2ccc(F)cc2)[C@H](COc2ccc3c(c2)OCO3)C1 (single isomer, unassigned) [FG 7043, reference compound] | – | – | 4 | – | – | –
8 | COc1ccc(OC[C@@H]2CNCC[C@H]2c2ccc(F)cc2)cc1 (single isomer, unassigned) [FG 7080, (-)-trans-4-(4-fluorophenyl)-3-[(4-methoxyphenoxy)-methyl]-piperidine] | – | – | 1 | – | – | –
9 | COc1ccc(OC[C@@H]2CN(C)CC[C@H]2c2ccc(F)cc2)cc1.Cl (single isomer, unassigned) [FG 8032, (+)-trans-4-(4-fluorophenyl)-3-[(4-methoxyphenoxy)methyl]-1-methylpiperidine hydrochloride] | – | – | 23 | – | – | –
10 | COc1ccc(OC[C@@H]2CN(C)CC[C@H]2c2ccc(F)cc2)cc1 (single isomer, unassigned) [FG 8033, (-)-trans-4-(4-fluorophenyl)-3-[(4-methoxyphenoxy)-methyl]-1-methyl-piperidine] | – | – | 0.5 | – | – | degree of activity in test for potentiation of 5-hydroxytryptophane-induced hypermotility (in words) (5-HT uptake; mice): remarkably and unpredictably superior in its 5-HT potentiation to the most structurally closely-related compounds evaluated; 5-HT potentiation activity relative to FG 8032 (5-HT uptake; [1]): 46 times; 5-HT potentiation activity relative to FG 8032, percent (5-HT uptake; [1]): 4600%; superiority as to 5-HT potentiation over FG 4963, factor (5-HT uptake; [2]): 5.6; superiority as to 5-HT potentiation over FG 4963, percent (5-HT uptake; [2]): 560%; 5-HT potentiation activity relative to FG 4962 (5-HT uptake; [3]): 7.6 times; 5-HT potentiation activity relative to FG 4962, percent (5-HT uptake; [3]): 760%; Therapeutic Index (in words) (mice; calculated as LD50/ED50): even more remarkably and unpredictably superior to those most structurally closely-related compounds when considering its Therapeutic Index; Therapeutic Index relative to FG 8032 (mice; [1]): more than 47 times; Therapeutic Index relative to FG 8032, percent (mice; [1]): > 4700%; superiority as to Therapeutic Index over FG 4963, factor (mice; [2]): greater than 5.97 times; superiority as to Therapeutic Index over FG 4963, percent (mice; [2]): > 597%; Therapeutic Index relative to FG 4962 (mice; [3]): more than 15 times; Therapeutic Index relative to FG 4962, percent (mice; [3]): > 1500%
11 | CC(=O)O.COc1ccc(OC[C@@H]2CNCC[C@H]2c2ccc(F)cc2)cc1 (single isomer, unassigned) [FG 8035, (+)-trans-4-(4-fluorophenyl)-3-((4-methoxyphenoxy)methyl)-piperidine acetate] | 4400 | 44 | 22 | 3333 | 33.33 | –
